This is an account of results in patent publication EP4803083A1, “USE OF PYRROLOTRIAZINE COMPOUND IN PREPARATION OF DRUG FOR PREVENTING AND/OR TREATING FIBROSIS OR RELATED DISEASE THEREOF” (Jumbo Drug Bank Co., Ltd., priority 2023, dated 2025).

In series [1] the test system is Liver spheroids. Kind of series: In vitro 3D liver NASH model: TG detection. The series is classed as cell-based, human. As to conditions: 60 nM; Day 10; compared with the NASH group; p<0.05. Here is the method:
(§1) Four types of human primary cells were used for modeling, including human primary hepatocytes (PHH), human primary liver sinusoidal endothelial cells (LSEC), human primary hepatic stellate cells (HSC), and human primary Kupffer cells (KC). The total number of cells in each model was 3000.
(§2) The cell connector NAC-Linker A was mixed with hepatocytes and incubated at room temperature for 30 minutes so that NAC-Linker A was fixed on the cell membrane surface. At the same time, the cell connector NAC-Linker B was mixed with the mixture of intrahepatic non-parenchymal cells and incubated at room temperature for 30 minutes so that NAC-Linker B was fixed on the cell membrane surface; (2) after incubation, the hepatocytes carrying NAC-Linker A and the intrahepatic non-parenchymal cells carrying NAC-Linker B were mixed evenly, and 20-30 µl droplets were prepared on the lid of a culture plate using a pipette. PBS solution and liver physiological culture medium (Puheng Biomedicine (Shanghai) Co., Ltd., liver physiological culture medium (human), catalog No. M0001) were added to the wells of the culture plate. The prepared culture plate lid was inverted and placed onto the culture plate to form hanging drops. The culture plate with hanging drops was placed upside down in a 37°C incubator for 12-24 hours. […]

Series [2] has as its system bleomycin-induced mouse pulmonary fibrosis model. Kind of series: Bleomycin-induced pulmonary fibrosis model: lung fibrosis grading score (Masson staining, Ashcroft Score). Format: in vivo, C57BL/6 mice. Conditions: endpoint 28 days, compared with the vehicle-treated group, p value <0.05. As to the method:
(§3) Experimental preparation: C57BL/6 mice, 8-10 weeks old, female, body weight approximately 18-22 g. Bleomycin. 1% sodium pentobarbital, sterile normal saline, insulin syringe.
(§4) Drug: p-toluenesulfonate salt of Compound 12 (10 mg/mL). The specific drug preparation method was as follows: 282.87 mg of the p-toluenesulfonate salt powder of Compound 12 was weighed and mixed with 1.050 mL of DMSO solution (preheated to 45°C). The mixture was placed in an ultrasonic water bath until completely dissolved. Subsequently, 19.95 mL of mixed solvent (comprising 1.995 mL of Solutol, 1.995 g of hydroxypropyl-β-cyclodextrin, and 15.96 mL water ) was added. The resulting mixture was sonicated again until completely dissolved to obtain a working solution with a concentration of 10 mg/mL. 1. After the mice begin to adapt to the environment, the experiment is started. The experimental animals are divided into five groups: normal control group, model group (Bleomycin group), low-dose treatment group (25 mg/kg), high-dose treatment group (50 mg/kg), and vehicle treatment group. […]
(§5) 5. […] According to the time point, the mice were euthanized and samples were collected for subsequent experiments; the day of modeling is recorded as day 1. […]

Series [3] concerns Liver spheroids. In words: In vitro 3D liver NASH model: H&E staining. The series is classed as cell-based, human. Conditions: compared with the NASH group. As to the method: as §1
(§6) The cell connector NAC-Linker A was mixed with hepatocytes and incubated at room temperature for 30 minutes so that NAC-Linker A was fixed on the cell membrane surface. At the same time, the cell connector NAC-Linker B was mixed with the mixture of intrahepatic non-parenchymal cells and incubated at room temperature for 30 minutes so that NAC-Linker B was fixed on the cell membrane surface; (2) after incubation, the hepatocytes carrying NAC-Linker A and the intrahepatic non-parenchymal cells carrying NAC-Linker B were mixed evenly, and 20-30 µl droplets were prepared on the lid of a culture plate using a pipette. PBS solution and liver physiological culture medium (Puheng Biomedicine (Shanghai) Co., Ltd., liver physiological culture medium (human), catalog No. M0001) were added to the wells of the culture plate. The prepared culture plate lid was inverted and placed onto the culture plate to form hanging drops. The culture plate with hanging drops was placed upside down in a 37°C incubator for 12-24 hours. Under the curvature of the lower surface of the hanging drops and gravity, complementary DNA pairing in the NAC-Linker formed connections to generate a 3D liver organoid structure.
(§7) After successful modeling on Day 0, the samples were divided into 5 groups according to different treatments, with 9 samples in each group. […]
Using ImageJ software, the steatotic area on the slides after H&E staining was quantified, and the ratio of the steatotic area to the total area of each slide was calculated (results are shown in Figure 6).

The subject of series [4] is COL1 and α-SMA. Kind of series: In vitro 3D liver NASH model: COL1 and α-SMA immunofluorescence staining. Format: cell-based, human. As to conditions: 10 nM, 30 nM and 60 nM groups. Here is the method: as §1
as §2, with “plate.” for “plate. The prepared culture plate lid was inverted and placed onto the culture plate to form hanging drops. The culture plate with hanging drops was placed upside down in a 37°C incubator for 12-24 hours.”
Liver spheroids were paraffin-embedded and sectioned, subjected to immunofluorescence staining, mounted, and photographed under a fluorescence microscope, and the results are shown in Figure 5

The test system of series [5] is bleomycin-induced mouse pulmonary fibrosis model. In words: Bleomycin-induced pulmonary fibrosis model: lung inflammation scoring (HE staining, Szapiel Score). Format: in vivo, C57BL/6 mice. Conditions: high-dose group (50 mg/kg); endpoint 28 days; compared with the vehicle treatment group; p value<0.05. As to the method: as §3, §4, §5
For series [6], the system named is IL-6. In words: In vitro 3D liver NASH model: cytokine detection (IL-6). The series is classed as cell-based, human. Conditions: 60 nM; culture medium supernatant; compared with the NASH group; significant difference p<0.05. Here is the method: as §1
as §2, with “drops.” for “drops. The culture plate with hanging drops was placed upside down in a 37°C incubator for 12-24 hours.”
The culture medium supernatant was collected and tested using an IL-6 detection kit according to the manufacturer's instructions, with measurement performed using a microplate reader.

The subject of series [7] is Liver spheroids. In words: In vitro 3D liver NASH model: Sirius Red staining. The series is classed as cell-based, human. As to conditions: for Sirius Red staining: fibrosis area in the liver spheroids: compared with the NASH group. Here is the method: as §1, §6, §7
Using ImageJ software, the fibrosis area on the slides after Sirius Red staining was quantified, and the ratio of the fibrosis area to the total area of each slide was calculated (Figure 7).

Take `Cc1cc(Nc2ncnn3cc(OCCN4CCC(F)(F)C4)c(C)c23)c(=O)n2c1C(=O)NC21CCCC1` [Compound 12 p-toluenesulfonate]: the TG level result in series [1] is “significant difference”. Further, the “Ashcroft Scores of lung tissue fibrosis” value in series [2] (high-dose group (50 mg/kg)) and in series [2] (low-dose group (25 mg/kg)) was “significantly lower scores” throughout. Moreover, the “H&E staining: hepatocyte steatosis and ballooning degeneration” value is “improvement in hepatocyte steatosis and ballooning degeneration” in series [3] (10 nM); “significant histological improvement” in series [3] (30 nM); “significant histological improvement” in series [3] (60 nM). Besides, the “COL1 and α-SMA immunofluorescence staining” value in series [4] is “therapeutic effect on liver fibrosis and exhibits dose dependence”. Moreover, the “Szapiel Score of lung tissue fibrosis” value in series [5] was “significantly lower score”. Also, the “inflammatory cytokine level (IL-6)” value in series [6] is “improved”. The “Sirius Red staining: degree of liver fibrosis” value in series [7] (10 nM, compared with the normal control group (so in the source)) was “trend of improvement”. Moreover, the “Sirius Red staining: fibrosis area in the liver spheroids” value in series [7] (30 nM) and in series [7] (60 nM) was “significant differences” throughout.
